Experimental data taken from patent US20060194860A1, “Pharmaceutical compositions containing aryl or heteroaryl azolylcarbinol compounds” (GRUENENTHAL GMBH, priority 2003, published 2006).

Molecular target: T1, 5-HT reuptake (Homo sapiens, UniProt P31645)
T1 construct: in a system with neurological tissue under physiological conditions; from tissue
Assay: Functional measurement of the 5-HT uptake / inhibition of serotonin uptake (tritium-marked 5-HT, neurological tissue)
Type: biochemical
Settings: uptake of tritium-marked 5-HT in neurological tissue under physiological conditions; three independent tests
Excerpt: Functional Measurement of the 5-HT-Uptake or the Inhibition of Serotonin Uptake
The uptake of tritium-marked 5-HT (serotonin) as a function of the concentration of the added substance 5-{α-[2-(methylamino)ethoxy]benzyl}-1-methyl-1H-pyrazole in a system with neurological tissue under physiological conditions.

T1 sequence (P31645 whole entry): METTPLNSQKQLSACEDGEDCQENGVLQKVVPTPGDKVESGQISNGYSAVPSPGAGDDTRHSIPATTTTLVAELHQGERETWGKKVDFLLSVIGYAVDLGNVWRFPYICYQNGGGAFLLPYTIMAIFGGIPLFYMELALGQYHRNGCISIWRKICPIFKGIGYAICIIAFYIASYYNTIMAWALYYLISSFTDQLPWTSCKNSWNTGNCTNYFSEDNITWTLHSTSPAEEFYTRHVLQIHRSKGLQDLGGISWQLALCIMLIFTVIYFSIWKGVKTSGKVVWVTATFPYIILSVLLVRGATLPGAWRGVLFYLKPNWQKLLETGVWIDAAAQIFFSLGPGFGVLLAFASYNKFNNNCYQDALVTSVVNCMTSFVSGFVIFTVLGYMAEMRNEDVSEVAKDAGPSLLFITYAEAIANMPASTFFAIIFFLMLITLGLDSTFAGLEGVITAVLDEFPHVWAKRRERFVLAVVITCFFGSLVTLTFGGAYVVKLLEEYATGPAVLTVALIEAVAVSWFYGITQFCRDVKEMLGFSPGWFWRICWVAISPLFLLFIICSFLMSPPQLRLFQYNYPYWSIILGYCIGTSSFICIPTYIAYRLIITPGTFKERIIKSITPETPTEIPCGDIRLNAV

Ki: 530 ± 100 nM
Compound: CNCCOC(c1ccccc1)c1ccnn1C (stereo not drawn) [5-{α-[2-(methylamino)ethoxy]benzyl}-1-methyl-1H-pyrazole]
